Results taken from patent US11446298B2, “Pyrimidine derivatives” (Idorsia Pharmaceuticals Ltd, priority 2017, dated 2022).

Tests used:
Format in all cases: cell-based
EP2 = molecular target: T1, EP2 (Homo sapiens, UniProt P43116); assay: hEP2 cAMP Assay (SF295 glioblastoma cells, HTRF cAMP, PGE2 75 nM); conditions: antagonistic activity, PGE2 75 nM (EC80)
T1 construct: SF295 glioblastoma cells express high endogenous EP2 and no EP4; host or cells: SF295 glioblastoma cells
Outline: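 IC50 values derive from duplicate-point curves of percent cAMP relative to DMSO, read by HTRF (665/620 nm) against a cAMP calibrator. Compounds (30 μM to 0.01 nM ranges) were given 45 min at room temperature before 30 min with 75 nM PGE2, in EP2-only SF295 cells with 2 mM IBMX.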

PTGER4 (EP4) = molecular target: T2, PTGER4 (EP4) (Homo sapiens, UniProt P35408); assay: hEP4 b-Arrestin Assay (PathHunter HEK 293 PTGER4 b-arrestin cells, PGE2 20 nM); conditions: antagonistic activity, beta-arrestin assay, HEK 293 PTGER4 cells, PGE2 20 nM (EC80); read-out: hEP4 b-arr IC50
T2 construct: host or cells: HEK 293 (PathHunter, stably transfected)
Outline: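 PathHunter HEK 293 EP4 b-arrestin enzyme-complementation cells preincubated 15 min at 37° C with compound (10 μM-2 nM or 1 μM-0.2 nM), then stimulated 120 min with 20 nM PGE2 (EC80). Chemiluminescence read; IC50 from duplicate % activity vs DMSO, one-site fit, averaged over repeats.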

PTGER2 (EP2) = molecular target: T3, PTGER2 (EP2) (Homo sapiens, UniProt P43116); assay: hEP2 b-Arrestin Assay (PathHunter HEK 293 PTGER2 b-arrestin cells, PGE2 5 μM); conditions: antagonistic activity, beta-arrestin assay, HEK 293 PTGER2 cells, PGE2 5 μM (EC80); read-out: hEP2 b-arr IC50
T3 construct: host or cells: HEK 293 (PathHunter, stably transfected)
Outline: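 PathHunter enzyme-fragment complementation in HEK 293 cells: compounds (10 μM-2 nM or 1 μM-0.2 nM) pre-incubated 15 min at 37 °C, then 5 μM PGE2 (EC80) for 120 min at 37 °C. Chemiluminescence read after 1 h detection; IC50 from duplicate dose-response fits, means of repeats.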

EP4 = molecular target: T4, EP4 (Homo sapiens, UniProt P35408); assay: hEP4 cAMP Assay (BT549 breast cancer cells, HTRF cAMP, PGE2 6 nM); conditions: antagonistic activity, PGE2 6 nM (EC80)
T4 construct: BT549 breast cancer cells, express high endogenous EP4 levels and very low EP2 levels; host or cells: BT549 breast cancer cells
Outline: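 BT549 cells (endogenous EP4, very low EP2) in HBSS/20 mM HEPES/0.2% BSA/2 mM IBMX, pre-incubated 45 min RT with compound, then stimulated 30 min RT with PGE2 6 nM (EC80). cAMP read by HTRF competitive immunoassay (665/620 nm), converted via calibrator to % of DMSO control; IC50 from duplicate dose-response curves.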

T1 sequence (P43116 whole entry): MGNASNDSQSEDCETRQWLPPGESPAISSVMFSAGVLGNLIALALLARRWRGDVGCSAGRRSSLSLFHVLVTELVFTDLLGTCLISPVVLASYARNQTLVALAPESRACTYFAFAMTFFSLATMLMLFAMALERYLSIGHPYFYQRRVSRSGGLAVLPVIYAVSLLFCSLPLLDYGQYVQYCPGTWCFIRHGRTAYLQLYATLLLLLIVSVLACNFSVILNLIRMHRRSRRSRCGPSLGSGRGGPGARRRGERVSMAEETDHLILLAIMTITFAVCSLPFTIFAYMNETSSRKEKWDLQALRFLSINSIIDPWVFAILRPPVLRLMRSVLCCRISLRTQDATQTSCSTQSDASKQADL
T3 sequence (P43116 whole entry): as above
T2 sequence (P35408 whole entry): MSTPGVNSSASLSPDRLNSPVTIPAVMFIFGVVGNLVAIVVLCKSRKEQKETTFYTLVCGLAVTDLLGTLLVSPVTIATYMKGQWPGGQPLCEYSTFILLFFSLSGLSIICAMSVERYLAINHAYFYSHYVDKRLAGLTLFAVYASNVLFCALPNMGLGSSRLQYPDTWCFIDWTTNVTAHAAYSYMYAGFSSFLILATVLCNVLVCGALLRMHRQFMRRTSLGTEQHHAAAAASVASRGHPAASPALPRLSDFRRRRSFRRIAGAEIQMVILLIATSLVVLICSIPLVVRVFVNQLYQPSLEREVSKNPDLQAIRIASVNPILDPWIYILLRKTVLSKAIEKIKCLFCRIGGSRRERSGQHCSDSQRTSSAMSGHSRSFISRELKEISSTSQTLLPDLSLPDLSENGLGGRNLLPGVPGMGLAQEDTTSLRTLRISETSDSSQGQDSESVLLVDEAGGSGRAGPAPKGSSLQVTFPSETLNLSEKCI
T4 sequence (P35408 whole entry): as above

Row | Compound | IC50 (EP2) [nM] | IC50 (PTGER4 (EP4)) [nM] | IC50 (PTGER2 (EP2)) [nM] | IC50 (EP4) [nM]
1 | COc1ccc2ccccc2c1CCNc1cc(-c2cc(OCCN(C)C)c(C(=O)O)s2)ncn1 [Example 157, 3-(2-Dimethylamino-ethoxy)-5-{6-[2-(2-methoxy-naphthalen-1-yl)-ethylamino]-pyrimidin-4-yl}-thiophene-2-carboxylic Acid] | 143 | 1910 | 43 | 1040
2 | CCOc1cc(-c2cc(NCCc3cccc4c(C)cccc34)ncn2)ccc1CC(=O)O [Example 164, (2-Ethoxy-4-{6-[2-(5-methyl-naphthalen-1-yl)-ethylamino]-pyrimidin-4-yl}-phenyl)-acetic acid] | 130 | 181 | 44 | 110
3 | CCOc1cc(-c2cc(NCCc3c(OC)ccc4ccccc34)ncn2)sc1C(=O)NS(C)(=O)=O [Example 136, N-(3-Ethoxy-5-{6-[2-(2-methoxy-naphthalen-1-yl)-ethylamino]-pyrimidin-4-yl}-thiophene-2-carbonyl)-methanesulfonamide] | 10 | 24 | 3 | 86
4 | COc1ccc2ncccc2c1CCNc1cc(-c2cc(C(F)(F)F)c(C(=O)O)s2)ncn1 [Example 81, 5-{6-[2-(6-Methoxy-quinolin-5-yl)-ethylamino]-pyrimidin-4-yl}-3-trifluoromethyl-thiophene-2-carboxylic acid] | 30 | 427 | 116 | 205
5 | CCOc1cc(-c2cc(NCCc3c(OC)ccc4ccccc34)ncn2)sc1C(=O)NS(N)(=O)=O [Example 135, 3-Ethoxy-5-(6-((2-(2-methoxynaphthalen-1-yl)ethyl)amino)pyrimidin-4-yl)-N-sulfamoylthiophene-2-carboxamide] | 3 | 23 | 5 | 67
6 | CCOc1cc(-c2cc(NCCc3c(OC)ccc4ncccc34)ncn2)sc1C(=O)O [Example 65, 3-Ethoxy-5-{6-[2-(6-methoxy-quinolin-5-yl)-ethylamino]-pyrimidin-4-yl}-thiophene-2-carboxylic acid] | 15 | 78 | 18 | 75
7 | CCOc1cc(-c2cc(NCCc3ccc(Cl)c4ccccc34)ncn2)sc1C(=O)O [Example 62, 5-{6-[2-(4-Chloro-naphthalen-1-yl)-ethylamino]-pyrimidin-4-yl}-3-ethoxy-thiophene-2-carboxylic acid] | 24 | 19 | 32 | 29
8 | CCOc1cc(-c2cc(NCCc3c(OC)ccc4ccccc34)ncn2)sc1/C=C/C(=O)O [Example 118, (E)-3-(3-Ethoxy-5-{6-[2-(2-methoxy-naphthalen-1-yl)-ethylamino]-pyrimidin-4-yl}-thiophen-2-yl)-acrylic acid] | 94 | 12 | 11 | 55
9 | CCOc1cc(-c2cc(NCCc3c(OC)ccc4ccccc34)ncn2)ccc1CC(=O)O [Example 160, (2-Ethoxy-4-{6-[2-(2-methoxy-naphthalen-1-yl)-ethylamino]-pyrimidin-4-yl}-phenyl)-acetic acid] | 79 | 667 | 24 | 252
10 | CCOc1cc(-c2cc(NCCc3ccc(F)c4ccccc34)ncn2)sc1C(=O)O [Example 21, 3-Ethoxy-5-{6-[2-(4-fluoro-naphthalen-1-yl)-ethylamino]-pyrimidin-4-yl}-thiophene-2-carboxylic acid] | 16 | 77 | 32 | 62
11 | CCOc1cc(-c2cc(NCCc3c(OC)ccc4ccccc34)ncn2)ccc1-c1nnn[nH]1 [Example 125, {6-[3-Ethoxy-4-(1H-tetrazol-5-yl)-phenyl]-pyrimidin-4-yl}-[2-(2-methoxy-naphthalen-1-yl)-ethyl]amine] | 24 | 29 | 8 | 29
12 | CCOc1cc(-c2cc(NCCc3ccc(OC)c4ccccc34)ncn2)sc1C(=O)O [Example 59, 3-Ethoxy-5-{6-[2-(4-methoxy-naphthalen-1-yl)-ethylamino]-pyrimidin-4-yl}-thiophene-2-carboxylic acid] | 141 | 17 | 156 | 38
13 | CCOc1cc(-c2cc(NCCc3c(N)ccc4ccccc34)ncn2)sc1C(=O)O [Example 78, 5-{6-[2-(2-Amino-naphthalen-1-yl)-ethylamino]-pyrimidin-4-yl}-3-ethoxy-thiophene-2-carboxylic acid] | 56 | 50 | 41 | 51
14 | CCOc1cc(-c2cc(NCCc3ccc(C(F)F)c4ccccc34)ncn2)sc1C(=O)O [Example 72, 5-{6-[2-(4-Difluoromethyl-naphthalen-1-yl)-ethylamino]-pyrimidin-4-yl}-3-ethoxy-thiophene-2-carboxylic acid] | 50 | 8 | 50 | 6
15 | CCOc1cc(-c2cc(NCCc3cccc4c(F)cccc34)ncn2)ccc1CC(=O)O [Example 163, (2-Ethoxy-4-{6-[2-(5-fluoro-naphthalen-1-yl)-ethylamino]-pyrimidin-4-yl}-phenyl)-acetic acid] | 202 | 294 | 80 | 180
16 | CCOc1cc(-c2cc(NCCc3cccc4cnccc34)ncn2)sc1-c1noc(=O)[nH]1 [Example 144, 3-{3-Ethoxy-5-[6-(2-isoquinolin-5-yl-ethylamino)-pyrimidin-4-yl]-thiophen-2-yl}-[1,2,4]oxadiazol-5(4H)-one] | 71 | 20 | 30 | 40
17 | CCOc1cc(-c2cc(NCCc3cccc4cc[nH]c34)ncn2)sc1C(=O)O [Example 46, 3-Ethoxy-5-{6-[2-(1H-indol-7-yl)-ethylamino]-pyrimidin-4-yl}-thiophene-2-carboxylic acid] | 85 | 311 | 110 | 244
18 | CCOc1cc(-c2cc(NCCc3c(C#N)ccc4ccccc34)ncn2)sc1C(=O)O [Example 68, 5-{6-[2-(2-Cyano-naphthalen-1-yl)-ethylamino]-pyrimidin-4-yl}-3-ethoxy-thiophene-2-carboxylic acid] | 3 | 24 | 7 | 22
19 | CCOc1cc(-c2cc(NCCc3cccc4ccccc34)ncn2)sc1C(=O)O [Example 9, 3-Ethoxy-5-[6-(2-naphthalen-1-yl-ethylamino)-pyrimidin-4-yl]-thiophene-2-carboxylic acid] | 9 | 56 | 11 | 14
20 | CCOc1cc(-c2cc(NCCc3c(OC)ccc4ccccc34)ncn2)sc1C(=O)O [Example 4, 3-Ethoxy-5-{6-[2-(2-methoxy-naphthalen-1-yl)-ethylamino]-pyrimidin-4-yl}-thiophene-2-carboxylic acid] | 2 | 20 | 2 | 15
21 | CCOc1cc(-c2cc(NCCc3cccc4cccnc34)ncn2)sc1C(=O)O [Example 23, 3-Ethoxy-5-[6-(2-quinolin-8-yl-ethylamino)-pyrimidin-4-yl}-thiophene-2-carboxylic acid] | 248 | 293 | 303 | 239
22 | CCOc1cc(-c2cc(NCCc3c(OC)ccc4ccccc34)ncn2)sc1-c1noc(=O)[nH]1 [Example 138, 3-(3-Ethoxy-5-{6-[2-(2-methoxy-naphthalen-1-yl)-ethylamino]-pyrimidin-4-yl}-thiophen-2-yl)-[1,2,4]oxadiazol-5(4H)-one] | 6 | 4 | 3 | 8
23 | CCOc1cc(-c2cc(NCCc3c(OC(C)C)ccc4ccccc34)ncn2)sc1C(=O)O [Example 30, 3-Ethoxy-5-{6-[2-(2-isopropoxy-naphthalen-1-yl)-ethylamino]-pyrimidin-4-yl}-thiophene-2-carboxylic acid] | 23 | 83 | 115 | 61
24 | COc1ccc2ccccc2c1CCNc1cc(-c2ccc(-c3cc(O)no3)cc2)ncn1 [Example 134, 5-(4-{6-[2-(2-Methoxy-naphthalen-1-yl)-ethylamino]-pyrimidin-4-yl}-phenyl)-isoxazol-3-ol] | 91 | 280 | 8 | 351
